# Test results reported in patent US8940748B2, “Iminothiadiazine dioxide compounds as BACE inhibitors, compositions, and their use” (Merck Sharp & Dohme Corp., priority 2009, dated 2015).
# Columns and labels:
# [1] = test system: endogenous rat Aβ1-40 (Aβ40) in cortex; experiment: Cortical Aβ40 in rats after oral dosing (Luminex-based immunodetection); type: in vivo; conditions: rats, 3 h after a 10 mg/kg oral dose, vs vehicle cohort, read-out: Change in rat cortex Aβ40
# Experimental: The following procedures were used.
# Male CD rats (˜100 g; Crl:CD(SD); Charles River Laboratories, Kingston, N.Y.) were group housed and acclimated to the vivarium for 5-7 days prior to use in a study. Compounds were formulated in 20% hydroxypropyl-β-cyclodextrin and administered orally with a dosing volume of 5 ml/kg for rats. Three h after drug administration, rats were euthanized with excess CO2. The brain was removed from the skull and immediately frozen on dry ice. All tissues were stored at −70° C. until Aβ quantification.
# Ab585 was labeled with biotin (b-Ab585) by first dialyzing the antibody sample extensively versus PBS (pH 7.8) to remove impurities, followed by dilution to between 1 and 2 mg/mL protein concentration. EZ-Link Sulfo-NHS-LC-Biotin (Pierce) was dissolved in PBS (pH 7.8) at a concentration of 1 mg/mL immediately prior to use. Ab585 was labeled with EZ-Link Sulfo-NHS-LC-biotin using a 10:1 biotin:antibody ratio by incubation at room temperature for 1 hour. The labeling reaction was quenched by addition of 1.0 M glycine to a final concentration of 0.1 M followed by 10 minute incubation at room temperature. Glycine was removed by extensive dialysis versus PBS.
# The antibody was coupled to the beads using the Bio-Plex Amine Coupling Kit (Bio-Rad) as per the manufacturer's recommendations.
# Rat cortex Aβ40 levels were measured from guanidine HCl extracts of individual rat cortices using a Luminex-based immunodetection assay. Rat brains were thawed briefly at 37° C. and both mid- and hindbrain regions were removed. The remaining material, consisting primarily of cortex (˜800 mg) was carried through the guanidine extraction procedure. Cortices were added to a 2 ml BioPur tube (Eppendorf) along with a 6.35 mm chrome-coated steel ball and 1.0 ml of sucrose homogenization buffer (20 mM HEPES [pH 7.5], 50 mM KCl, 50 mM sucrose, 2 mM EDTA, 2 mM EGTA supplemented with complete protease inhibitors [Roche, EDTA-free]). Samples were then homogenized by agitation for 1.5 min at 30 cycles/sec in a MM300 tissue mixer (Retsch®). The resulting cortical homogenate was extracted with guanidine-HCl by mixing 67 μl of homogenate with 133 μl of 5 M Guanidine HCl, 50 mM Tris HCl (pH 8.0). To maximize the efficiency of Aβ extraction, samples were vortexed and then sonicated for 2 minutes in an ice bath using an Ultrasonics XL cup horn sonicator at a power setting of 8 (Heat Systems, Inc.). Insoluble material was removed by ultracentrifugation using a using a TLA-55 rotor in a TL-100 benchtop centrifuge (Beckman) at 100,000×g for 30 minutes. The resulting supernatant was then either diluted 1:10 in 5 M guanidine HCl, 0.05 M Tris HCl (pH 8.0) for protein analysis (BCA protein assay, Pierce Biochemicals) or assayed neat for Aβ40 levels. The Luminex rodent Aβ40 assay was performed as follows. First, 96 well filter binding plates (Millipore, catalogue # MSBVN12) were wetted with 100 μl of 1×LAβ40 buffer (0.05 M HEPES [pH 7.5], 0.2% BSA, 0.2% Tween-20, 0.15 M NaCl) by vacuum filtration on a Millipore 96-well manifold. The plate bottom was sealed and 100 μl of 1×LAβ40 buffer was added to each well followed by addition of 50 μl each of G2-10:COOH beads (1000 beads/well) and 50 μl b-Ab585 at 0.5 μg/ml in 1×LAβ40 buffer. Guanidine HCl was added to synthetic rodent Aβ40 standards in order to control for the effect of guanidine in brain extracts on the assay performance. Ten microliters of cortical extract, rodent Aβ40 standards or cortical extract from amyloid precursor protein knockout mice (to define background immunoreactivity) was added to each well. Plates were covered and incubated overnight at 4° C. Following the incubation, wells were cleared by vacuum and washed twice with 100 μl of 1×LAβ40 buffer on a Millipore manifold.
# [2] = Caco-2 bi-directional permeability; type: in vitro ADME; conditions: human, Caco-2; permeability apical to basolateral; read-out: Caco-2 AP→BL
# Experimental: (§1) The bi-directional permeability with efflux potential of selected compounds of the invention vs. otherwise structurally identical iminopyrimidinones (collectively referred to as test compounds, shown in the table below) were assessed using Caco-2 cell line. The Caco-2 cells were maintained in DMEM (Dulbecco's Modified Eagle Medium) containing 10% fetal bovine serum, 1% non-essential amino acids, 2 mM L-glutamine, and 1% penicillin-streptomycin in an incubator at ˜37° C. in an atmosphere of 5% CO2 and about 90% relative humidity. The cell culture medium was changed three times weekly. Caco-2 cell monolayers were grown on polyethylene terephthalate filters using 24-well BD Falcon™ Cell Culture Insert Plates (0.33 cm^2 insert area, 1 μm pore size; BD BioSciences, Bedford, Mass.). The culture medium of the plate was changed every other day until used for the transport experiment (21-28 days post seeding).
# (§2) The transport buffer (TM) was Hank's balanced salt solution (HBSS) with 10 mM HEPES and 25 mM glucose (pH 7.4) for dosing and TM with 4% bovine serum albumin for receiver (pH 7.4). The bi-directional permeability of the test compounds were tested at concentrations of 1, 10 and 100 μM was measured in triplicate with 2-hr incubation. The cell monolayer integrity was monitored with pre- and post-experimental trans-epithelial electrical resistance and post-experimental Lucifer Yellow (LY) permeability with 1 hr incubation.
# (§3) The apparent permeability, recovery and efflux ratio values were calculated using the following equations:
# (§4) where, • dCR/dt: The slope of the accumulative concentration in the receiver compartment versus time incubation (μM·s^−1) • C0hr: Donor concentration (μM) immediately after dosing • CD, final: Donor concentration (μM) at the end of incubation • S: Membrane surface area (cm^2) • VD: Volume of donor compartment (mL) • VR: Volume of receiver compartment (mL) • Papp-BLtoAP: Permeability from basolateral (BL) to apical (AP) transport
# P-gp = experiment: Caco-2 bi-directional permeability; type: in vitro ADME; conditions: human, Caco-2
# Experimental: as §1, §2, §3, §4
# [3] = target: soluble human BACE1 catalytic domain (Homo sapiens (Human), UniProt P56817); experiment: BACE1 HTRF FRET assay; type: biochemical; conditions: Ki calculated from IC50 using the Cheng-Prusoff equation; read-out: BACE-1 Ki
# Sequence of soluble human BACE1 catalytic domain (P56817 75-416): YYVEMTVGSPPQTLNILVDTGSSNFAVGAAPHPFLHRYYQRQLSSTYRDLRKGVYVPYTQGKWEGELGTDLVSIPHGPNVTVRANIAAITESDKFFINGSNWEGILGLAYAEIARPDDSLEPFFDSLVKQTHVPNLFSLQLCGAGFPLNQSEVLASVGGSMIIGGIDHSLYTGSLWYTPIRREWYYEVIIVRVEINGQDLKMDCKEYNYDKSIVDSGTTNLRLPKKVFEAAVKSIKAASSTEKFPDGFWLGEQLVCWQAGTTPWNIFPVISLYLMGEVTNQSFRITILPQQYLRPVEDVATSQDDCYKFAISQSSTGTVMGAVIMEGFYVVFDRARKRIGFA
# [4] = Solution stability, Example A (pH 7.4 phosphate buffer/MeOH, LC/MS); type: physicochemical; conditions: for degredation: aqueous pH 7.4 buffer containing methanol
# Experimental: A 1.05 mg/mL stock solution (5 mL) of Ex. 45 in MeOH was prepared. From the stock solution was taken out 1.25 mL and diluted to 25 mL with the addition of 23.75 mL of 10 mM phosphate buffer (pH 7.4)/MeOH (70/30 v/v). This new solution was split into three. One solution was incubated at 4° C., another incubated at 25° C. and the third incubated at 40° C. Each solution was analyzed by LC/MS after day 1, day 2 and day 6 and compared to a standard calibration curve for Ex. 45.
# In the following study, the solution stability of the compound of Example 45 was measured and compared to that of Compound Z. The compound of Example 45 is an iminothiadiazine dioxide compound of the invention. Compound Z is the corresponding iminopyrimidinone compound. The structures of the compound of Example 45 and of Compound Z are shown below. Studies were performed in aqueous pH 7.4 buffer containing methanol at 4° C., 25° C. and 40° C.
# [5] = target: purified human autoBACE-2 (Homo sapiens (Human), UniProt Q9Y5Z0); experiment: BACE-2 assay (BACE-HTRF, time-resolved endpoint proteolysis); type: biochemical; conditions: Ki calculated from IC50 using the Cheng-Prusoff equation
# Sequence of purified human autoBACE-2 (Q9Y5Z0 63-473 limits assumed): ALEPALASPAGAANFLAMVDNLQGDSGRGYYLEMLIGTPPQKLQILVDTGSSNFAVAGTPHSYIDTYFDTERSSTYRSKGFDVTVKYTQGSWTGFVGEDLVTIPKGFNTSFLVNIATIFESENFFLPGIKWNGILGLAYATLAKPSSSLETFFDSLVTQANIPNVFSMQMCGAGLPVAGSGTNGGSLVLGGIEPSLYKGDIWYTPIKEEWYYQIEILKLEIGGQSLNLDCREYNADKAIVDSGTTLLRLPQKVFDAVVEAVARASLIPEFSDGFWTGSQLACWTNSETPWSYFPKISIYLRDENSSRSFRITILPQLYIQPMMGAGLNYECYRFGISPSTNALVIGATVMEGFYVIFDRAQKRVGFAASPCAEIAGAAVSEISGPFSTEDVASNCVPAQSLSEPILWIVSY
# Experimental: Inhibitor IC50s at purified human autoBACE-2 were determined in a time-resolved endpoint proteolysis assay that measures hydrolysis of the QSY7-[sequence]-Eu-amide FRET peptide substrate (BACE-HTRF assay). […] DMSO was present at 5% final concentration in the assay. Following laser excitation of sample wells at 320 nm, the fluorescence signal at 620 nm was collected for 400 ms following a 50 μs delay on a RUBYstar HTRF plate reader (BMG Labtechnologies). Raw RFU data was normalized to maximum (1.0 nM BACE/DMSO) and minimum (no enzyme/DMSO) RFU values. […] The Ki values were calculated from the IC50 using the Cheng-Prusoff equation.
# [6] = Solution stability, Example B (50 mM pH 7.4 phosphate buffer, 25° C., LC/MS); type: physicochemical
# Experimental: Stock solutions of the tested compounds were prepared by dissolving about 3 mg of each compound in 3 mL of acetonitrile. Standards for test compounds were prepared by diluting 1 mL of the stock solution with an additional 4 mL of acetonitrile. These standards were stored at 4° C. Samples were prepared by diluting 1 mL of the stock solution with 4 mL of 50 mM pH 7.4 phosphate buffer. These samples were stored at 25° C. in the absence of light. Standards and samples were analyzed by LC/MS initially and at day 1, day 4, and day 6.
# Mobile phase A: 10 mM pH 5 ammonium acetate buffer:methanol (90:10)
# Mobile phase B: 10 mM pH 5 ammonium acetate buffer:methanol (10:90)
# Column: Zorbax SB-Phenyl 4.6×50 mm, 1.8 μm
# Column temperature: 40° C.
# Area % is the integration of peak from HPLC as reported by Waters Empower II software.
# In the following study, the solution stability of the compound of Example 47 was measured and compared to that of Compound Y. The compound of Example 47 is an iminothiadiazine dioxide compound of the invention. Compound Y is the corresponding iminopyrimidinone compound. The structures of the compound of Example 47 and of Compound Y are shown below. Studies were performed in pH 7.4 buffer at 25° C.
# [7] = pH 7.4, 40° C., last column without time heading
# [8] = Standard (in acetonitrile, stored at 4° C.)
compound,measurement,setting,value
CN1C(=N)N[C@](C)(c2c(F)ccc(NC(=O)c3ccc(F)cn3)c2F)CC1=O [Iminopyrimidinone 173],change in vivo at 10 mg/kg,[1],-3%
same,Papp A→B at 2 h,[2],2.5 ×10⁻⁶ cm/s
same,efflux ratio at 2 h,P-gp,6.1
CN1C(=N)N[C@](C)(c2cc(-c3cccc(C#N)c3)cs2)CS1(=O)=O [Example 45],Ki,[3],25.6 nM
same,efflux ratio at 2 h,P-gp,1.4
same,degredation,"[4]; 4° C., after 6 days",0.93%
same,degredation,"[4]; 25° C., after 6 days",7.4%
same,degredation,"[4]; 40° C., after 6 days",30.71%
same,Assay (Area %),"[4]; pH 7.4, 4° C., 1 day",99.69 Area %
same,Assay (Area %),"[4]; pH 7.4, 4° C., 2 days",99.04 Area %
same,Assay (Area %),"[4]; pH 7.4, 4° C., 6 days",98.89 Area %
same,Assay (Area %),"[4]; pH 7.4, 4° C., Initial",99.82 Area %
same,Assay (Area %),"[4]; pH 7.4, 25° C., 1 day",98.45 Area %
same,Assay (Area %),"[4]; pH 7.4, 25° C., 2 days",96.07 Area %
same,Assay (Area %),"[4]; pH 7.4, 25° C., 6 days",92.43 Area %
same,Assay (Area %),"[4]; pH 7.4, 25° C., Initial",99.82 Area %
same,Assay (Area %),"[4]; pH 7.4, 40° C., 1 day",96.32 Area %
same,Assay (Area %),"[4]; pH 7.4, 40° C., 2 days",89.70 Area %
same,Assay (Area %),"[4]; pH 7.4, 40° C., 6 days",69.11 Area %
same,Assay (Area %),"[4]; pH 7.4, 40° C., Initial",99.82 Area %
same,"Assay (Area %), degradation symbol",[4]; [7],— ((—) stands for > 20% degradation)
CC#Cc1cncc(-c2csc([C@]3(C)CS(=O)(=O)N(C)C(=N)N3)c2)c1 [Example 47],Ki,[3],~6.5 nM
same,Ki,[5],~1 nM
same,"Area %, Day 1 (Unknown peak, RRT 1.49)","[6]; Sample at pH 7.4, 25° C.",1.44 Area %
same,"Area %, Day 1 (parent peak, RRT 1.00)","[6]; Sample at pH 7.4, 25° C.",98.56 Area %
same,"Area %, Day 4 (Unknown peak, RRT 1.49)","[6]; Sample at pH 7.4, 25° C.",1.47 Area %
same,"Area %, Day 4 (parent peak, RRT 1.00)","[6]; Sample at pH 7.4, 25° C.",98.53 Area %
same,"Area %, Day 6 (Unknown peak, RRT 1.49)","[6]; Sample at pH 7.4, 25° C.",1.47 Area %
same,"Area %, Day 6 (parent peak, RRT 1.00)","[6]; Sample at pH 7.4, 25° C.",98.53 Area %
same,"Area %, Initial (Unknown peak, RRT 1.49)","[6]; Sample at pH 7.4, 25° C.",1.45 Area %
same,"Area %, Initial (parent peak, RRT 1.00)","[6]; Sample at pH 7.4, 25° C.",98.55 Area %
same,"Area %, Day 1 (Unknown peak, RRT 1.49)",[6]; [8],1.45 Area %
same,"Area %, Day 1 (parent peak, RRT 1.00)",[6]; [8],98.55 Area %
same,"Area %, Day 4 (Unknown peak, RRT 1.49)",[6]; [8],1.48 Area %
same,"Area %, Day 4 (parent peak, RRT 1.00)",[6]; [8],98.52 Area %
same,"Area %, Day 6 (Unknown peak, RRT 1.49)",[6]; [8],1.48 Area %
same,"Area %, Day 6 (parent peak, RRT 1.00)",[6]; [8],98.52 Area %
same,"Area %, Initial (Unknown peak, RRT 1.49)",[6]; [8],1.47 Area %
same,"Area %, Initial (parent peak, RRT 1.00)",[6]; [8],98.53 Area %
same,hydrolysis product,"[6]; pH 7.4 buffer at 25° C., after 6 days",0%
Cc1ccc(C(=O)Nc2ccc(F)c([C@]3(C)CS(=O)(=O)N(C)C(=N)N3)c2)nc1 [Example 35],Ki,[3],3 nM
same,Ki,[5],0.45 nM
same,efflux ratio at 2 h,P-gp,2.1
"CC#Cc1cncc(-c2cc(Cl)c([C@]3(C)CC(=O)N(C)C(=N)N3)s2)c1 [Iminopyrimidinone 52, reference compound]",Papp A→B at 2 h,[2],15.3 ×10⁻⁶ cm/s
Cc1cnc(C(=O)Nc2ccc(F)c([C@]3(C)CC(=O)N(C)C(=N)N3)c2)cn1 [Iminopyrimidinone 36],Papp A→B at 2 h,[2],1.1 ×10⁻⁶ cm/s
same,efflux ratio at 2 h,P-gp,12.9
CN1C(=N)N[C@](C)(c2cc(-c3cccc(C#N)c3)cs2)CC1=O [Iminopyrimidinone 45],change in vivo at 10 mg/kg,[1],-5%
same,Papp A→B at 2 h,[2],17.4 ×10⁻⁶ cm/s
same,efflux ratio at 2 h,P-gp,2.6
CN1C(=N)N[C@](C)(c2cc(NC(=O)c3ccc(Cl)cn3)ccc2F)CS1(=O)=O [Example 34],Ki,[3],0.949 nM
same,Ki,[5],0.22 nM
same,change in vivo at 10 mg/kg,[1],-51%
same,efflux ratio at 2 h,P-gp,3.1
COc1cnc(C(=O)Nc2ccc(F)c([C@]3(C)CS(=O)(=O)N(C)C(=N)N3)c2)cn1 [Example 40ai],Ki,[3],1.64 nM
same,Ki,[5],1.99 nM
same,change in vivo at 10 mg/kg,[1],-51%
same,efflux ratio at 2 h,P-gp,1.8
CN1C(=N)N[C@](C)(c2cc(NC(=O)c3ccc(C(F)(F)F)cn3)ccc2F)CC1=O [Iminopyrimidinone 26],change in vivo at 10 mg/kg,[1],0%
same,Papp A→B at 2 h,[2],1.7 ×10⁻⁶ cm/s
same,efflux ratio at 2 h,P-gp,11.3
CN1C(=N)N[C@](C)(c2cc(NC(=O)c3ccc(F)cn3)ccc2F)CS1(=O)=O [Example 25],change in vivo at 10 mg/kg,[1],-49%
Cc1cnc(C(=O)Nc2ccc(F)c([C@]3(C)CS(=O)(=O)N(C)C(=N)N3)c2)cn1 [Example 36],Ki,[3],10 nM
same,Ki,[5],4.85 nM
same,change in vivo at 10 mg/kg,[1],-25%
same,efflux ratio at 2 h,P-gp,3.3
CN1C(=N)N[C@](C)(c2c(F)ccc(NC(=O)c3ccc(F)cn3)c2F)CS1(=O)=O [Example 173],change in vivo at 10 mg/kg,[1],-27%
same,Papp A→B at 2 h,[2],12.6 ×10⁻⁶ cm/s
CN1C(=N)N[C@](C)(c2cc(-c3ccc(F)c(C#N)c3)cs2)CS1(=O)=O [Example 46],Ki,[3],46 nM
same,Ki,[5],8.23 nM
COc1cnc(C(=O)Nc2cc(F)c(F)c([C@]3(C)CC(=O)N(C)C(=N)N3)c2)cn1 [Iminopyrimidinone 40di],change in vivo at 10 mg/kg,[1],5%
same,Papp A→B at 2 h,[2],6.5 ×10⁻⁶ cm/s
same,efflux ratio at 2 h,P-gp,3.2
CN1C(=N)N[C@](C)(c2cc(-c3ccc(F)c(C#N)c3)cs2)CC1=O [Iminopyrimidinone 46],Papp A→B at 2 h,[2],13.6 ×10⁻⁶ cm/s
same,efflux ratio at 2 h,P-gp,2.6
CN1C(=N)N[C@](C)(c2cc(-c3cccc(C#N)c3)cs2)CC1=O [Compound Z],degredation,"[4]; 4° C., after 1 day",18.3%
same,degredation,"[4]; 25° C., time not stated",53.87%
same,degredation,"[4]; 40° C., after 1 day",79.93%
same,Assay (Area %),"[4]; pH 7.4, 4° C., 1 day",69.84 Area %
same,"Assay (Area %), degradation symbol","[4]; pH 7.4, 4° C., 2 days",— ((—) stands for > 20% degradation)
same,"Assay (Area %), degradation symbol","[4]; pH 7.4, 4° C., 6 days",— ((—) stands for > 20% degradation)
same,Assay (Area %),"[4]; pH 7.4, 4° C., Initial",88.15 Area %
same,"Assay (Area %), degradation symbol","[4]; pH 7.4, 4° C., last column without time heading",— ((—) stands for > 20% degradation)
same,Assay (Area %),"[4]; pH 7.4, 25° C., 1 day",34.28 Area %
same,"Assay (Area %), degradation symbol","[4]; pH 7.4, 25° C., 2 days",— ((—) stands for > 20% degradation)
same,"Assay (Area %), degradation symbol","[4]; pH 7.4, 25° C., 6 days",— ((—) stands for > 20% degradation)
same,Assay (Area %),"[4]; pH 7.4, 25° C., Initial",88.15 Area %
same,"Assay (Area %), degradation symbol","[4]; pH 7.4, 25° C., last column without time heading",— ((—) stands for > 20% degradation)
same,Assay (Area %),"[4]; pH 7.4, 40° C., 1 day",8.22 Area %
same,"Assay (Area %), degradation symbol","[4]; pH 7.4, 40° C., 2 days",— ((—) stands for > 20% degradation)
same,"Assay (Area %), degradation symbol","[4]; pH 7.4, 40° C., 6 days",— ((—) stands for > 20% degradation)
same,Assay (Area %),"[4]; pH 7.4, 40° C., Initial",88.15 Area %
same,"Assay (Area %), degradation symbol",[4]; [7],— ((—) stands for > 20% degradation)
CN1C(=N)N[C@](C)(c2cc(NC(=O)c3ccc(F)cn3)ccc2F)CC1=O [Iminopyrimidinone 25],change in vivo at 10 mg/kg,[1],-11%
same,Papp A→B at 2 h,[2],2.2 ×10⁻⁶ cm/s
same,efflux ratio at 2 h,P-gp,10.6
CN1C(=N)N[C@](C)(c2cc(NC(=O)c3ccc(C(F)(F)F)cn3)ccc2F)CS1(=O)=O [Example 26],Ki,[3],1.26 nM
same,Ki,[5],2.46 nM
same,change in vivo at 10 mg/kg,[1],-33%
same,efflux ratio at 2 h,P-gp,2.9
